Experimental data reported in PubChem BioAssay (NCI).
Several values for one entry are separate records, joined by “and”; a condition that tells them apart may be missing. Equal entries are not always repeated.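 The compound was tested at five concentrations on cells cultured in 96-well plates, with a 48-hour exposure period. GI50 = concentration required for 50% inhibition of growth. Definition used: TGI = concentration required for complete inhibition of growth.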

What was measured:
Experiment in all cases: NCI-60 cell line screen, 48 h
[1] = test system: DMS 114 small cell lung
[2] = test system: DMS 273 small cell lung
[3] = test system: MOLT-4 leukemia
[4] = test system: NCI-H226 lung
[5] = test system: SF-295 CNS
[6] = test system: SNB-19 CNS
[7] = test system: SR leukemia
[8] = test system: LOX IMVI melanoma
[9] = test system: MDA-MB-231 breast
[10] = test system: MDA-MB-435

SMILES	TGI [1] [µM]	TGI [2] [µM]	TGI [3] [µM]	TGI [4] [µM]	TGI [5] [µM]	TGI [6] [µM]	TGI [7]	TGI [8] [µM]	GI50 [8] [µM]	GI50 [3] [µM]	GI50 [5] [µM]	GI50 [7] [µM]	GI50 [9]	TGI [9]	GI50 [10] [µM]	TGI [10] [µM]	GI50 [4] [µM]	GI50 [6] [µM]	GI50 [1] [µM]	GI50 [2] [µM]
O=C(CC/C(CC(=O)c1ccc(Cl)cc1)=N/O)Nc1ccc(Cl)c(Cl)c1	> 100	> 100	> 100	> 100	> 100	> 100	> 100 µM													
Cc1ccc(-c2nc3c(C(=O)NCCN(C)C)cccc3[nH]2)cc1	26.6	27.1	18.5	31.7	53.7	> 100		24.6												
S=P1(c2ccccc2)Nc2ccc(Cl)cc2N1 (stereo not drawn)	> 100	> 100	> 100	> 100	> 100	> 100		> 100												
N#CCc1ccc(/C(C#N)=C2/OC(=N)C(c3ccc(CC#N)cc3)C2=O)cc1 (stereo not drawn)	> 100	> 100	> 100	> 100	> 100	> 100		> 100												
CCCCCCCCCCCCCC(=O)OC(/C=C/C(C)C)C(O)C(O)C(OC)C(=O)NC1CCCCNC1=O (stereo not drawn)	3.85	2.81	10.5	8.95	4.42	9.08	2.04 µM and 9.05 µM	4.38	1.73	5.57	2.92	0.381								
CN(C)CC(C)(C)C(/C=C/c1ccccc1)=N\Nc1ccccc1	21.8	11.2	17.3		0.907	> 100		15.7												
COCOCc1cc(OCc2ccccc2)c(OC)cc1Br		> 100			> 100	> 100	> 100 µM	> 100												
CC1CC(C)/C(=N/NC(N)=O)C(C(O)CC2CCC(=O)NC2=O)C1 (stereo not drawn)			> 100	> 100	13.5	> 100	> 100 µM	> 100	2.48	4.09	1.68	8.1	8.4 µM	88.9 µM	3.3	97	4.69	3.73		
N#CCCN(CCC#N)c1ccc(/C=N\c2nc(-c3ccccc3)cs2)cc1	> 100	> 100	> 100	> 100	> 100	> 100		> 100												
O=C1Nc2ccccc2/C1=C/c1cn(C(=O)c2c(Cl)cccc2Cl)c2ccccc12			> 100	27	9.3	> 100	8.13 µM	3.24	1.59	2.82	2.24	2.25	3.09 µM	16.8 µM	2.24	7.1	7.48	7.32		
CC1(C)N=C(N)N=C(N)N1c1ccc(OCC(=O)N2CCOCC2)c(Cl)c1			> 100	> 100	> 100	> 100	> 100 µM	> 100	0.545	6.31	0.561	0.568	> 100 µM	> 100 µM	0.565	> 100	33.5	19.1		
COc1ccc(NC(=O)COC(=O)c2cccc3c(=O)c4ccccc4[nH]c23)cc1	37.8		33.7	44.6	40.2	> 100	28.9 µM	28.3												
Cn1ccnc1C(=O)/C=C/c1ccc(C(=O)Nc2ccccc2O)cc1			8.18	7.8	12.1	11.5	6.55 µM	3.12	1.38	2.38	3.53	0.307	3.26 µM	12.3 µM	2.22	4.85	2.35	2.6		
O=C1Cc2ccccc2N1c1c(Cl)cccc1Cl	95.4		98.1	> 100	> 100	> 100	90.2 µM	> 100												
COc1cc(C2CC(c3ccc(Nc4ccnc5cc(Cl)ccc45)cc3)=NN2C=O)cc(OC)c1OC (stereo not drawn)			9.21	> 100	27.7	> 100	6.49 µM	3.85	1.89	3.36	5.63	2.58	4.39 µM	54 µM	2.1	5.4	34.5	18.2		
COc1cc(C(=O)N2CCN(c3ccccc3OC)CC2)c(N)cc1OCc1ccccc1			53.6	> 100	> 100	> 100	48.7 µM	71.3	27.2	21.5	40.3	22.5	19.2 µM	42.6 µM	28.1	76.5	38.3	25.7		
CN(C)c1ccc(/C=C/c2ccnc3ccccc23)cc1N			25.5	36.5	27.7	28.5	5.87 µM	32.6						20.1 µM		8.06				
CCC[CH2][Sn]1([CH2]CCC)[O]C(=O)c2cccc(OC)c2[O]1	0.624	1.96	1.36	3.04	2.27	2.13		0.442	0.161	0.217	1.08						1.63	0.799	0.196	0.569
Cc1cc(Cl)ccc1NC(=O)CC1SC(N)=NC1=O (stereo not drawn)	> 100	> 100	> 100	> 100	> 100	> 100		> 100												

SMILES	TGI [1] [µM]	TGI [2] [µM]	TGI [3] [µM]	TGI [4] [µM]	TGI [5] [µM]	TGI [6] [µM]	TGI [7]	TGI [8] [µM]	GI50 [8] [µM]	GI50 [3] [µM]	GI50 [5] [µM]	GI50 [7] [µM]	GI50 [9]	TGI [9]	GI50 [10] [µM]	TGI [10] [µM]	GI50 [4] [µM]	GI50 [6] [µM]	GI50 [1] [µM]	GI50 [2] [µM]
Cn1cnc([N+](=O)[O-])c1SC1=NCCS1		> 100	> 100	> 100	> 100	> 100	> 100 µM	39												
N#CCC12CC=CCC1=C(O)C(=O)c1ccc(O)cc12 (stereo not drawn)			> 100	> 100	> 100	> 100	> 100 µM	> 100						> 100 µM		> 100				
Cc1cc(O)ccc1O			37.7	> 100	> 100	> 100	76.6 µM	27.4	13.7	5.24	34.9	19.4	11.4 µM	23.6 µM	17.8	36.6	55.6	41.4		
NC(N)=N/N=C(/c1ccccc1)c1ccc(Cl)cc1			> 100	> 100	> 100	> 100	> 100 µM	> 100	18.4	5.45	10.3	3.94	16.5 µM	56.6 µM	2.74	9.27	29.3	87.2		
O=C1C2C(C(=O)N1c1ccccc1)C1(c3ccccc3)OC2(c2ccccc2)c2ccccc21 (stereo not drawn)	> 100	> 100	> 100		> 100	> 100		> 100												
O=C1CSC(=S)N1Cc1cccnc1			> 100	> 100	> 100	> 100	> 100 µM	12.5	2.58	11.6	37.7	3.56	4.47 µM	17.2 µM	3.53	17.1	42.3	47.8		
O=C1/C(=C/c2ccc([N+](=O)[O-])o2)Oc2ccccc21			3.7	4.98	13.8	18.6	1.13 µM	2.93	1.42	1.35	3.43	0.219	1.54 µM	3.58 µM	1.79	4.01	1.94	5.06		
CC(C)=CCc1ccc(O)c(=O)cc1C(C)C			> 100	> 100	> 36.9	> 100	> 100 µM	> 22.9	0.327	0.394	0.939	0.465	3.36 µM	> 100 µM	0.814	> 100	2.37	0.735		
O=C(N/N=c1/ccoc2cccnc12)N1CCN(c2ncccn2)CC1			8.06	2.56	6.03	16.8	15.6 µM	5.12	< 0.0158	< 0.0129	0.268	0.153	0.278 µM	7.41 µM	0.568	8.24		0.804		
CC1C=CC(C)C2(O)C(=O)NC(O)C12 (stereo not drawn)	> 100	> 100	> 100	> 100		> 100	> 100 µM													
O=C(Nc1ccc([N+](=O)[O-])cc1C(=O)O)c1ccc([N+](=O)[O-])cc1	50.7	> 100	31.4	91.6	> 100	> 100		> 100												
c1ccc2c(Nc3ccc(Oc4ccc(Nc5c6ccccc6nc6ccccc56)cc4)cc3)c3ccccc3nc2c1			0.843	3.81	0.829	1.11	0.323 µM		0.0148	0.186		0.126	0.197 µM and 0.139 µM	0.566 µM and 0.268 µM		0.4		0.333		
CC(C)=CC(O)C/C(C)=C/CC/C(C)=C/CCC1(C)C(CCCO)/C(=C(/C)C=O)CCC1(C)O (stereo not drawn)			83.2	> 100	> 100	> 100	83.3 µM	> 100						74.1 µM		> 100				
C#C[C@@]1(O)CCCC2=CC(=O)C[C@]21C	> 100		> 100	> 100	> 100	> 100	> 100 µM													
C=C(C)[C@@H]1CC[C@]2(C(=O)O)CC[C@]3(C)[C@H](CC[C@@H]4[C@@]5(C)C[C@@H](CC#Cc6ccc(Br)cc6)C(=O)C(C)(C)[C@@H]5CC[C@]43C)[C@@H]12			> 100	> 100	81.1	64.8	> 100 µM	> 100	5.65	4.44	12.6	9.33	3.67 µM	14.8 µM	4.94	> 100	24.2	6.19		
CCCCCCCCCCCCCCCCOC(=O)c1c(C)[nH]c(/C=C2\N=C(c3ccc[nH]3)C=C2OC)c1C			> 100	15.2	11	80.3	> 100 µM	0.144	0.0346	> 100	2.7	1.54	0.789 µM	10.1 µM	0.307	> 100	4.54	11.8		
COc1cc(Nc2ncc3c(C)nc(-c4cccc(Oc5ccccc5)c4)n3n2)cc(OC)c1OC			> 21.3	> 25	> 25	> 25	> 21.4 µM	> 15.5	3.57	7.46	7.2	5.99	4.99 µM	> 24.2 µM	6.26	> 25	5.93	12.1		
O[C@@H]1CCCN1Cc1cc2cc3c(cc2c2cc(OCc4ccccc4)ccc12)OCO3			14.1	37.7	4.23	21.4	7.08 µM	3.44	1.8	3.38	1.95	2.63	2.18 µM	5.59 µM	2	4.29	15.7	6.23		
N#Cc1c(NC(=O)c2cccc3ccccc23)sc2c1CCCC2			> 25	> 25	> 25	> 25	> 9.97 µM	> 25	0.0625	0.102	0.0109	0.026	0.148 µM	> 14.5 µM	0.00636	0.0193	0.195	0.107		
